According to patent publication US20090062401A1, “DECALINE-DERIVED COMPOUNDS AS […] ACTIVE AGENTS” (UNIVERSITAT DORTMUND, priority 2004, published 2009):

Molecular target: VHR (Homo sapiens, UniProt P51452)
Experiment: VHR phosphatase inhibition, general phosphatase assay using para-nitrophenylphosphate
Type: biochemical
Settings: read-out: IC50 Target VHR
Excerpt: Assays protocols for the other enzymes mentioned herein (MtPTPA, PP1, VHR, PTP1B) are disclosed in Schweizer R A S, Atanasov, G A, Frey B M, and Odermatt A, Mol. Cell. Endocrinol. 2003, 212, 41-49 and Barratte, B., Meijer L., Galaktionov K. & Beach D, Anticancer Res. 1992, 12, 873-880. For determination of the phosphatase activity, a general phosphatase assay using para-nitrophenylphosphate was applied.

Chain of VHR (P51452 whole entry, species assumed): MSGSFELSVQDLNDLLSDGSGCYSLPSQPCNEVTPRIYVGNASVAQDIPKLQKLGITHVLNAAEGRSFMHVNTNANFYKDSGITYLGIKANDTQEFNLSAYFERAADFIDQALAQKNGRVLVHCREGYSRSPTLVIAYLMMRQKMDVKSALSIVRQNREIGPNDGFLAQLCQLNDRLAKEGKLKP

Compound	IC50
CC1=C2CCC[C@H](O)[C@@]2(C)C/C(=C\c2ccc(Cl)cc2)C1=O [Compound 7, (3E,4aS,5S)-3-(4-Chlorobenzyliden)-4,4a,5,6,7,8-hexahydro-5-hydroxy-1,4a-dimethylnaphthalen-2(3H)-one]	10 to 50 µM
CC1=C2CCC[C@H](O)[C@@]2(C)C/C(=C\c2ccccc2)C1=O [Compound 18, (3E,4aS,5S)-3-benzylidene-4,4a,5,6,7,8-hexahydro-5-hydroxy-1,4a-dimethylnaphthalen-2(3H)-one]	10 to 50 µM
CC1=C2CCC[C@H](O)[C@@]2(C)C/C(=C\c2cc(C)cs2)C1=O [Compound 19, (3E,4aS,5S)-4,4a,5,6,7,8-Hexahydro-5-hydroxy-1,4a-dimethyl-3-[(4-methylthiophen-2-yl)methylen]naphthalen-2(3H)-one]	< 10 µM
CCCCCCCCc1ccc(/C=C2\C[C@@]3(C)C(=C(C)C2=O)CCC[C@@H]3O)c(C)c1 [Compound 20, (3E,4aS,5S)-3-(2-Methyl-4-octyl-benzyliden)-4,4a,5,6,7,8-hexahydro-5-hydroxy-1,4a-dimethyl-naphthalen-2(3H)-one]	10 to 50 µM
CC1=C2CCC[C@H](O)[C@@]2(C)C/C(=C\c2ccoc2)C1=O [Compound 62]	10 to 50 µM
CCc1ccc(/C=C2\C[C@@]3(C)C(CCC[C@@H]3O)C(C)C2=O)c(C)c1 (stereo partly drawn) [Compound 89, (E,4aS,5S)-3-(4-Ethyl-2-methylbenzyliden)-octahydro-5-hydroxy-1,4a-dimethylnaphthalen-2(1H)-one]	10 to 50 µM
CC1=C2CCC[C@H](O)[C@@]2(C)C/C(=C\c2ccc(O)c(O)c2O)C1=O [Compound 107, (3E,4aS,5S)-3-(2,3,4-Trihydroxybenzyliden)-4,4a,5,6,7,8-hexahydro-5-hydroxy-1,4a-dimethylnaphthalen-2(3H)-one]	10 to 50 µM
CC1=C2CCC[C@H](O)[C@@]2(C)C/C(=C\c2c[nH]c3ccccc23)C1=O [Compound 115, (3E,4aS,5S)-3-[(1H-Indol-3-yl)methylen]-4,4a,5,6,7,8-hexahydro-5-hydroxy-1,4a-dimethylnaphthalen-2(3H)-one]	10 to 50 µM
CCCCCCC#Cc1ccc(/C=C2\C[C@@]3(Cc4ccccc4)C(=C(C)C2=O)CCC[C@@H]3O)cc1 [Compound 126, (3E,4aS,5S)-3-[4-(Oct-1-inyl)benzyliden]-4a-benzyl-4,4a,5,6,7,8-hexahydro-5-hydroxy-1-methylnaphthalen-2(3H)-one]	10 to 50 µM
C[C@]12C/C(=C\c3ccc(C#Cc4ccccc4)cc3)C(=O)C=C1CCC[C@@H]2O [Compound 136, (3E,4aS,5S)-3-[4-(2-Phenylethinyl)benzyliden]-4,4a,5,6,7,8-hexahydro-5-hydroxy-4a-methylnaphthalen-2(3H)-one]	10 to 50 µM
COc1cc(CC2(C)C(NC3CCCCC3)CC[C@@]3(C)C2CCC[C@@H]3O)cc(OC)c1 (stereo partly drawn) [Compound 146, (1S,8aS)-5-(3,5-Dimethoxybenzyl)-6-(cyclohexylamino)-decahydro-5,8a-dimethylnaphthalen-1-ol]	10 to 50 µM
CCOC(=O)CC1(C)C(=O)CC[C@@]2(C)C1CCC[C@@H]2O (stereo partly drawn) [Compound 153, Ethyl-2-[(4aS,5S)-decahydro-5-hydroxy-1,4a-dimethyl-2-oxonaphthalen-1-yl]acetat]	10 to 50 µM
CC1C(=O)/C(=C/c2ccccc2OCc2ccccc2)C[C@@]2(C)C1CCC[C@@H]2O (stereo partly drawn) [Compound 190, (E,4aS,5S)-3-[2-(Benzyloxy)-benzyliden]-octahydro-5-hydroxy-1,4a-dimethylnaphthalen-2(1H)-one]	10 to 50 µM
C[C@H]1/C(=C\c2ccccc2)C(=O)C=C2CCC[C@H](O)[C@]21C [Compound 203, (3E,4R,4aS,5S)-3-Benzyliden-4,4a,5,6,7,8-hexahydro-5-hydroxy-4,4a-dimethylnaphthalen-2(3H)-one]	10 to 50 µM
CC1=C2CCC[C@H](O)[C@@]2(C)C/C(=C\c2c(C)c(C)c(C)c(C)c2C)C1=O [Compound 215, (3E,4aS,5S)-3-(2,3,4,5,6-Pentamethylbenzyliden)-4,4a,5,6,7,8-hexahydro-5-hydroxy-1,4a-dimethylnaphthalen-2(3H)-one]	10 to 50 µM
C[C@]12C/C(=C\c3ccccc3OCc3ccccc3)C(=O)C=C1CCC[C@@H]2O [Compound 223, (3E,4aS,5S)-3-[2-(Benzyloxy)benzyliden]-4,4a,5,6,7,8-hexahydro-5-hydroxy-4a-methylnaphthalen-2(3H)-one]	10 to 50 µM
CCCC(C)/C=C1\C[C@@]2(C)C(=CC1=O)CCC[C@@H]2O (stereo partly drawn) [Compound 225, (3E,4aS,5S)-4,4a,5,6,7,8-Hexahydro-5-hydroxy-4a-methyl-3-(2-methylpentyliden)naphthalen-2(3H)-one]	10 to 50 µM
C=CC[C@@]12C(=CC(=O)/C(=C/C3=CC[C@@H](C(=C)C)CC3)[C@@H]1C)CCC[C@@H]2O [Compound 241]	10 to 50 µM
C=CC[C@@]12C(=CC(=O)/C(=C/c3ccc(C)o3)[C@@H]1C)CCC[C@@H]2O [Compound 242, (3E,4R,4aS,5S)-4a-Allyl-4,4a,5,6,7,8-hexahydro-5-hydroxy-4-methyl-3-[(5-methylfuran-2-yl)methylen]naphthalen-2(3H)-on]	10 to 50 µM
C[C@@H]1C(O)CC[C@]2(C)C(=O)/C(=C/c3ccco3)CCC12 (stereo partly drawn) [Compound 266, (E,5S,8aS)-2-[(Furan-2-yl)methylen]-octahydro-6-hydroxy-5,8a-dimethylnaphthalen-1(2H)-one]	10 to 50 µM
COc1cc(OC)c(OC)cc1/C=C1\CCC2[C@H](C)C(O)CC[C@]2(C)C1=O (stereo partly drawn) [Compound 267, (E,5S,8aS)-2-(2,4,5-Trimethoxy-benzyliden)-octahydro-6-hydroxy-5,8a-dimethylnaphthalen-1(2H)-one]	10 to 50 µM
C=C(C)[C@H]1CC=C(/C=C2\C[C@@]3(C)C(=CC2=O)CCC[C@@H]3O)CC1 [Compound 286, (3E,4aS,5S)-4,4a,5,6,7,8-Hexahydro-5-hydroxy-4a-methyl-3-{[(R)-4-(prop-1-en-2-yl)cyclohex-1-enyl]methylen}naphthalen-2(3H)-one]	10 to 50 µM
CC1(CCc2ccccc2)C(=O)/C(=C/c2ccc(I)cc2)CC2(C)C1CCCC21OCCO1 (stereo not shown) [Compound 402, (7′E)-7′-(4-iodo-benzylidene)-5′,8a′-dimethylhexahydro-5′-(2-phenylethyl)-2′H-spiro[1,3-dioxolane-2,1′-naphthalen]-6′(5′H)-one]	10 to 50 µM
CC1(Cc2ccccc2[N+](=O)[O-])C(=O)CC[C@@]2(C)C1CCC[C@@H]2O (stereo partly drawn) [Compound 405, (4aS,5S)-5-Hydroxy-1,4a-dimethyl-1-(2-nitro-benzyl)-octahydro-naphthalen-2-one]	10 to 50 µM
COc1cc(OC)c(/C=C2\C[C@]3(C)C(=O)CCCC3=C(C)C2=O)c(OC)c1 [Compound 408, (3E,4aS)-5,8a-Dimethyl-7-(2,4,6-trimethoxy-benzylidene)-3,4,8,8a-tetrahydro-2H,7H-naphthalen-1,6-dione]	10 to 50 µM
